Converted amounts (≈) assume the structure as drawn. Blank lines part the entries; values can stand above or below the compound they belong to.
Test: Solubility measurement by dissolution apparatus, Ponesimod content by liquid chromatography
Format: physicochemical
Protocol: The solubility for Ponesimod Form T1, according to this invention, Ponesimod Form A and Form C (described in PCT application WO 2010/046835) was measured by using Dissolution apparatus (Lab India DS8000) at 37° C. Buffers at pH. 1.2, 4.5 and 6.8 were prepared as per the USP 36 Solutions/Buffer Solutions 1209. About 200 mg of Ponesimod Form T1, 150 mg of Ponesimod Forms A and C were added to the 100 mL buffer (pH 1.2, 4.5 and 6.8) in individual flasks to obtain saturated suspension and the suspension was stirred with 250 rpm for 24 hours. Suspension was observed though out stirring period. Samples were drawn at different intervals on completion of 15 mins, 30 mins, 45 mins, 1 hrs, 2 hrs, 3 hrs, 4 hrs and 24 hrs from each flask and filtered through 0.45μ PTFE filter, each solution was analyzed for Ponesimod content by liquid chromatography.

- solubility at 45 min (pH 1.2 buffer (USP), 37 °C, pH 1.2, simulated gastric fluid, thermodynamic from solid, pH 1.2 buffer, 45 Min): 120 µg/mL (≈ 260 µM)
- solubility at 60 min (pH 1.2 buffer (USP), 37 °C, pH 1.2, simulated gastric fluid, thermodynamic from solid, pH 1.2 buffer, 60 Min): 120 µg/mL (≈ 260 µM)
- Solubility results at pH = 1.2 (pH 1.2 buffer, 37° C., 2 Hrs, listed as A): 0.11 mg/ml
- Solubility results at pH = 1.2 (pH 1.2 buffer, 37° C., 3 Hrs, listed as A): 0.11 mg/ml
- Solubility results at pH = 1.2 (pH 1.2 buffer, 37° C., 4 Hrs, listed as A): 0.11 mg/ml
- Solubility results at pH = 1.2 (pH 1.2 buffer, 37° C., 30 Min, listed as A): 0.13 mg/ml
SMILES: CCC/N=C1\S/C(=C\c2ccc(OC[C@H](O)CO)c(Cl)c2)C(=O)N1c1ccccc1C [Form A, (R)-5-[3-chloro-4-(2,3-dihydroxy-propoxy)-benz[Z]ylidene]-2-([Z]-propylimino)-3-o-tolyl-thiazolidin-4-one]

- Solubility results at pH = 1.2 (pH 1.2 buffer, 37° C., 2 Hrs, listed as C): 0.09 mg/ml
- Solubility results at pH = 1.2 (pH 1.2 buffer, 37° C., 3 Hrs, listed as C): 0.11 mg/ml
- Solubility results at pH = 1.2 (pH 1.2 buffer, 37° C., 4 Hrs, listed as C): 0.12 mg/ml
- Solubility results at pH = 1.2 (pH 1.2 buffer, 37° C., 15 Min, listed as C): 0.05 mg/ml
- Solubility results at pH = 1.2 (pH 1.2 buffer, 37° C., 24 Hrs, listed as C): 0.15 mg/ml
- Solubility results at pH = 1.2 (pH 1.2 buffer, 37° C., 30 Min, listed as C): 0.06 mg/ml
- Solubility results at pH = 1.2 (pH 1.2 buffer, 37° C., 45 Min, listed as C): 0.07 mg/ml
- Solubility results at pH = 1.2 (pH 1.2 buffer, 37° C., 60 Min, listed as C): 0.08 mg/ml
SMILES: CCC/N=C1\S/C(=C\c2ccc(OC[C@H](O)CO)c(Cl)c2)C(=O)N1c1ccccc1C [Form C, (R)-5-[3-chloro-4-(2,3-dihydroxy-propoxy)-benz[Z]ylidene]-2-([Z]-propylimino)-3-o-tolyl-thiazolidin-4-one]

- Solubility compared to other known crystalline polymorphs of Ponesimod (comparison in words): higher solubility
- Solubility results at pH = 1.2 (pH 1.2 buffer, 37° C., 2 Hrs, listed as T1): 0.24 mg/ml
- Solubility results at pH = 1.2 (pH 1.2 buffer, 37° C., 3 Hrs, listed as T1): 0.29 mg/ml
- Solubility results at pH = 1.2 (pH 1.2 buffer, 37° C., 4 Hrs, listed as T1): 0.31 mg/ml
- Solubility results at pH = 1.2 (pH 1.2 buffer, 37° C., 15 Min, listed as T1): 0.07 mg/ml
- Solubility results at pH = 1.2 (pH 1.2 buffer, 37° C., 24 Hrs, listed as T1): 0.40 mg/ml
- Solubility results at pH = 1.2 (pH 1.2 buffer, 37° C., 30 Min, listed as T1): 0.09 mg/ml
- Solubility results at pH = 1.2 (pH 1.2 buffer, 37° C., 45 Min, listed as T1): 0.12 mg/ml
- Solubility results at pH = 1.2 (pH 1.2 buffer, 37° C., 60 Min, listed as T1): 0.15 mg/ml
SMILES: CCC/N=C1\S/C(=C\c2ccc(OC[C@H](O)CO)c(Cl)c2)C(=O)N1c1ccccc1C [Form T1, (R)-5-[3-chloro-4-(2,3-dihydroxy-propoxy)-benz[Z]ylidene]-2-([Z]-propylimino)-3-o-tolyl-thiazolidin-4-one]

- Solubility at higher pH conditions (higher pH conditions (e.g. 4.5 and 6.8), 37° C.): not soluble
SMILES: CCC/N=C1\S/C(=C\c2ccc(OC[C@H](O)CO)c(Cl)c2)C(=O)N1c1ccccc1C [Ponesimod, (R)-5-[3-chloro-4-(2,3-dihydroxy-propoxy)-benz[Z]ylidene]-2-([Z]-propylimino)-3-o-tolyl-thiazolidin-4-one]

Reference: US11220488B2, “Crystalline polymorph of Ponesimod” (TEVA PHARMACEUTICALS INTERNATIONAL GMBH, priority 2017, dated 2022)
